Legend:
AZD7648 = compound: Cc1cc2ncnn2cc1Nc1ncc2c(n1)n(C1CCOCC1)c(=O)n2C [AZD7648]; settings: max 10 µM
In short: (§1)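 Viability was measured with CellTiter-Glo 2.0 luminescence after 72 hours of dosing at a final DMSO of typically 0.2%, and scaled between blank-well and DMSO-well means. Beforehand, cancer cell lines sat 24 hours at 37°C and 5% CO2 in 1536-well plates in 7.5 μl DMEM/F12 or RPMI with 10% FBS. A non-linear mixed effects model fitted two-parameter logistic curves to the dose responses. The single-agent IC50 comes from these fits.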

Gefitinib = compound: COc1cc2ncnc(Nc3ccc(F)c(Cl)c3)c2cc1OCCCN1CCOCC1 [Gefitinib]; settings: max 10 µM
In short: as §1

AZD1390 = compound: CC(C)n1c(=O)n(C)c2cnc3cc(F)c(-c4ccc(OCCCN5CCCCC5)nc4)cc3c21 [AZD1390]; settings: max 0.3 µM
In short: as §1

AZD6738 = compound: C[C@@H]1COCCN1C2=NC(=NC(=C2)C3(CC3)[S@](=N)(=O)C)C4=C5C=CNC5=NC=C4 [AZD6738]; settings: max 10 µM
In short: as §1

Savolitinib = compound: C[C@@H](c1ccc2nccn2c1)n1nnc2ncc(-c3cnn(C)c3)nc21 [Savolitinib]; settings: max 1 µM
In short: as §1

Doxorubicin = compound: COc1cccc2c1C(=O)c1c(O)c3c(c(O)c1C2=O)C[C@@](O)(C(=O)CO)C[C@@H]3O[C@H]1C[C@H](N)[C@H](O)[C@H](C)O1 [Doxorubicin]; settings: max 1 µM
In short: as §1

Olaparib = compound: O=C(c1cc(Cc2n[nH]c(=O)c3ccccc23)ccc1F)N1CCN(C(=O)C2CC2)CC1 [Olaparib]; settings: max 10 µM
In short: as §1

Selumetinib = compound: Cn1cnc2c(F)c(Nc3ccc(Br)cc3Cl)c(C(=O)NOCCO)cc21 [Selumetinib]; settings: max 10 µM
In short: as §1

Prexasertib = compound: COc1cccc(OCCCN)c1-c1cc(Nc2cnc(C#N)cn2)n[nH]1 [Prexasertib]; settings: max 1 µM
In short: as §1

Paclitaxel = compound: CC(=O)O[C@H]1C(=O)[C@@]2(C)[C@H]([C@H](OC(=O)c3ccccc3)[C@]3(O)C[C@H](OC(=O)[C@H](O)[C@@H](NC(=O)c4ccccc4)c4ccccc4)C(C)=C1C3(C)C)[C@]1(OC(C)=O)CO[C@@H]1C[C@@H]2O [Paclitaxel]; settings: max 3 µM
In short: as §1

Gemcitabine = compound: Nc1ccn([C@@H]2O[C@H](CO)[C@@H](O)C2(F)F)c(=O)n1 [Gemcitabine]; settings: max 0.3 µM
In short: as §1

Carboplatin = compound: C1CC(C1)(C(=O)[O-])C(=O)[O-].N.N.[Pt+2] [Carboplatin]; settings: max 10 µM
In short: as §1

Alisertib = compound: COc1cc(Nc2ncc3c(n2)-c2ccc(Cl)cc2C(c2c(F)cccc2OC)=NC3)ccc1C(=O)O [Alisertib]; settings: max 10 µM
In short: as §1

AZD0156 = compound: CN(C)CCCOc1ccc(-c2ccc3ncc4c(c3c2)n(C2CCOCC2)c(=O)n4C)cn1 [AZD0156]; settings: max 3 µM
In short: as §1

[1] = compound: O=C(Nc1ccc2[nH]nc(-c3ccncc3)c2c1)[C@@H]1CCN(CC(=O)N2CCN(c3ccc(-c4ncccn4)cc3)CC2)C1; settings: max 5 µM
In short: as §1

Trametinib = compound: CC(=O)Nc1cccc(-n2c(=O)n(C3CC3)c(=O)c3c(Nc4ccc(I)cc4F)n(C)c(=O)c(C)c32)c1 [Trametinib]; settings: max 1 µM
In short: as §1

AZD4320 = compound: CN(CC[C@H](CSC1=CC=CC=C1)NC2=C(C=C(C=C2)S(=O)(=O)NC(=O)C3=CC=C(C=C3)N4CCC(CC4)[C@H](C5=CC=CC=C5C6=CC=C(C=C6)Cl)O)S(=O)(=O)C(F)(F)F)CCO [AZD4320]; settings: max 1 µM
In short: as §1

SRA737 = compound: N#Cc1cnc(Nc2cc(NC[C@H]3CNCCO3)c(C(F)(F)F)cn2)cn1 [SRA737]; settings: max 10 µM
In short: as §1

SN-38 = compound: CCc1c2c(nc3ccc(O)cc13)-c1cc3c(c(=O)n1C2)COC(=O)[C@]3(O)CC [SN-38]; settings: max 0.3 µM
In short: as §1

AZD5363 = compound: C1CN(CCC1(C(=O)N[C@@H](CCO)C2=CC=C(C=C2)Cl)N)C3=NC=NC4=C3C=CN4 [AZD5363]; settings: max 10 µM
In short: as §1

Lapatinib = compound: CS(=O)(=O)CCNCc1ccc(-c2ccc3ncnc(Nc4ccc(OCc5cccc(F)c5)c(Cl)c4)c3c2)o1 [Lapatinib]; settings: max 10 µM
In short: as §1

AZD5991 = compound: Cc1c2c(nn1C)CSCc1cc(n(C)n1)CSc1cc(c3ccccc3c1)OCCCc1c(C(=O)O)n(C)c3c-2c(Cl)ccc13 [AZD5991]; settings: max 1 µM
In short: as §1

SG3199 = compound: CC1=CN2[C@@H](C1)C=NC3=CC(=C(C=C3C2=O)OC)OCCCCCOC4=C(C=C5C(=C4)N=C[C@@H]6CC(=CN6C5=O)C)OC [SG3199]; settings: max 0.001 µM
In short: as §1

5-Fluorouracil = compound: O=c1[nH]cc(F)c(=O)[nH]1 [5-Fluorouracil]; settings: max 20 µM
In short: as §1

AZD1775 = compound: C=CCn1c(=O)c2cnc(Nc3ccc(N4CCN(C)CC4)cc3)nc2n1-c1cccc(C(C)(C)O)n1 [AZD1775]; settings: max 3 µM
In short: as §1

Taselisib = compound: Cc1nc(-c2cn3c(n2)-c2ccc(-c4cnn(C(C)(C)C(N)=O)c4)cc2OCC3)n(C(C)C)n1 [Taselisib]; settings: max 10 µM
In short: as §1

Etoposide = compound: COc1cc([C@@H]2c3cc4c(cc3[C@@H](O[C@@H]3O[C@@H]5CO[C@@H](C)O[C@H]5[C@H](O)[C@H]3O)[C@H]3COC(=O)[C@H]23)OCO4)cc(OC)c1O [Etoposide]; settings: max 10 µM
In short: as §1

AZD8186 = compound: C[C@@H](Nc1cc(F)cc(F)c1)c1cc(C(=O)N(C)C)cc2c(=O)cc(N3CCOCC3)oc12 [AZD8186]; settings: max 10 µM
In short: as §1

Palbociclib = compound: CC(=O)c1c(C)c2cnc(Nc3ccc(N4CCNCC4)cn3)nc2n(C2CCCC2)c1=O [Palbociclib]; settings: max 10 µM
In short: as §1

Crizotinib = compound: C[C@@H](Oc1cc(-c2cnn(C3CCNCC3)c2)cnc1N)c1c(Cl)ccc(F)c1Cl [Crizotinib]; settings: max 10 µM
In short: as §1

MK-2206 = compound: NC1(c2ccc(-c3nc4ccn5c(=O)[nH]nc5c4cc3-c3ccccc3)cc2)CCC1 [MK-2206]; settings: max 10 µM
In short: as §1

Venetoclax = compound: CC1(C)CCC(CN2CCN(c3ccc(C(=O)NS(=O)(=O)c4ccc(NCC5CCOCC5)c([N+](=O)[O-])c4)c(Oc4cnc5[nH]ccc5c4)c3)CC2)=C(c2ccc(Cl)cc2)C1 [Venetoclax]; settings: max 1 µM
In short: as §1

AZD5153 = compound: COc1nnc2ccc(N3CCC(c4ccc(OCCN5CCN(C)C(=O)[C@H]5C)cc4)CC3)nn12 [AZD5153]; settings: max 1 µM
In short: as §1

AZD2811 = compound: CCN(CCO)CCCOc1ccc2c(Nc3cc(CC(=O)Nc4cccc(F)c4)[nH]n3)ncnc2c1 [AZD2811]; settings: max 1 µM
In short: as §1

Dasatinib = compound: CC1=C(C(=CC=C1)Cl)NC(=O)C2=CN=C(S2)NC3=CC(=NC(=N3)C)N4CCN(CC4)CCO [Dasatinib]; settings: max 2 µM
In short: as §1

Row | Cell Line | IC50, cell viability 72 h (AZD7648) | IC50, cell viability 72 h (Gefitinib) | IC50, cell viability 72 h (AZD1390) | IC50, cell viability 72 h (AZD6738) | IC50, cell viability 72 h (Savolitinib) | IC50, cell viability 72 h (Doxorubicin) | IC50, cell viability 72 h (Olaparib) | IC50, cell viability 72 h (Selumetinib) | IC50, cell viability 72 h (Prexasertib) | IC50, cell viability 72 h (Paclitaxel) | IC50, cell viability 72 h (Gemcitabine) | IC50, cell viability 72 h (Carboplatin) | IC50, cell viability 72 h (Alisertib) | IC50, cell viability 72 h (AZD0156) | IC50, cell viability 72 h [1] | IC50, cell viability 72 h (Trametinib) | IC50, cell viability 72 h (AZD4320) | IC50, cell viability 72 h (SRA737) | IC50, cell viability 72 h (SN-38) | IC50, cell viability 72 h (AZD5363) | IC50, cell viability 72 h (Lapatinib) | IC50, cell viability 72 h (AZD5991) | IC50, cell viability 72 h (SG3199) | IC50, cell viability 72 h (5-Fluorouracil) | IC50, cell viability 72 h (AZD1775) | IC50, cell viability 72 h (Taselisib) | IC50, cell viability 72 h (Etoposide) | IC50, cell viability 72 h (AZD8186) | IC50, cell viability 72 h (Palbociclib) | IC50, cell viability 72 h (Crizotinib) | IC50, cell viability 72 h (MK-2206) | IC50, cell viability 72 h (Venetoclax) | IC50, cell viability 72 h (AZD5153) | IC50, cell viability 72 h (AZD2811) | IC50, cell viability 72 h (Dasatinib)
1 | 22RV1 (Prostate Carcinoma) | > 10 µM | > 10 µM | > 300 nM | > 10 µM | > 1000 nM | 426 nM | > 10 µM | > 10 µM | > 1000 nM | 50.6 nM | 101 nM | > 10 µM | > 10 µM | > 3000 nM | > 5000 nM | > 1000 nM | > 1000 nM | > 10 µM | 28.9 nM | > 10 µM | > 10 µM | > 1000 nM | > 1 nM | > 20 µM | > 3000 nM | 1.86 µM | > 10 µM | > 10 µM | > 10 µM | > 10 µM | 6.05 µM | > 1000 nM | > 1000 nM | > 1000 nM | > 2000 nM
2 | MDA-MB-436 (Breast Carcinoma) | > 10 µM | > 10 µM | > 300 nM | > 10 µM | > 1000 nM | > 1000 nM | > 10 µM | > 10 µM | > 1000 nM | > 3000 nM | > 300 nM | > 10 µM | > 10 µM | > 3000 nM | > 5000 nM | > 1000 nM | > 1000 nM | > 10 µM | 207 nM | > 10 µM | > 10 µM | > 1000 nM | > 1 nM | > 20 µM | > 3000 nM | > 10 µM | > 10 µM | > 10 µM | > 10 µM | > 10 µM | > 10 µM | > 1000 nM | > 1000 nM | > 1000 nM | > 2000 nM
3 | A2780 (Ovarian Carcinoma) | 9.29 µM | > 10 µM | > 300 nM | 3.65 µM | > 1000 nM | 48.3 nM | 9.95 µM | 3.53 µM | 334 nM | 4.38 nM | 8.45 nM | > 10 µM | 0.386 µM | > 3000 nM | 243 nM | 39.1 nM | > 1000 nM | > 10 µM | 11.3 nM | 1.83 µM | > 10 µM | 964 nM | > 1 nM | 9.03 µM | 813 nM | 0.117 µM | 0.582 µM | 1.38 µM | 1.16 µM | 2.19 µM | 1.61 µM | > 1000 nM | 73.7 nM | 370 nM | > 2000 nM
4 | PEO1 (Ovarian Carcinoma) | > 10 µM | > 10 µM | > 300 nM | > 10 µM | > 1000 nM | > 1000 nM | > 10 µM | > 10 µM | > 1000 nM | 52.9 nM | > 300 nM | > 10 µM | > 10 µM | > 3000 nM | > 5000 nM | > 1000 nM | > 1000 nM | > 10 µM | 57.3 nM | > 10 µM | > 10 µM | > 1000 nM | > 1 nM | > 20 µM | 1540 nM | 8.19 µM | > 10 µM | > 10 µM | > 10 µM | > 10 µM | > 10 µM | > 1000 nM | > 1000 nM | > 1000 nM | > 2000 nM
5 | NCI-H2087 (Lung Adenocarcinoma) | > 10 µM | > 10 µM | > 300 nM | > 10 µM | > 1000 nM | > 1000 nM | > 10 µM | 6.12 µM | 96.2 nM | 225 nM | 255 nM | > 10 µM | > 10 µM | > 3000 nM | 2200 nM | 350 nM | > 1000 nM | > 10 µM | 18.8 nM | > 10 µM | > 10 µM | > 1000 nM | > 1 nM | > 20 µM | > 3000 nM | > 10 µM | > 10 µM | > 10 µM | > 10 µM | > 10 µM | > 10 µM | > 1000 nM | > 1000 nM | > 1000 nM | > 2000 nM

Reference: the supplement of paper PMC11061612
